The results in this text go back to the supplement of paper PMC10307832.

Experiment in all cases: relative viability (nuclei count vs DMSO), 5 days (fraction); higher = more cells survive
Compound in the assay “Cediranib + Decitabine”: COc1cc2c(Oc3ccc4[nH]c(C)cc4c3F)ncnc2cc1OCCCN1CCCC1 [Cediranib] + Nc1ncn([C@H]2C[C@H](O)[C@@H](CO)O2)c(=O)n1 [Decitabine] (partner 2 µM)
A digest of the protocol:
(§1)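 Lung cancer cell lines in 1536-well plates were dosed by pin tool the day after seeding, either with one drug alone or with a fixed anchor-drug dose plus five library-drug doses (not always all listed) in √10 steps. After 5 days, cells were fixed and their nuclei stained in one step (final 0.05% Triton X-100, 1% formaldehyde, 1 ug/ml Hoechst), then counted on 4× images. Relative viability is the nuclei count in treated wells divided by that in vehicle wells. Values are medians of duplicate plates.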

Compound in the assay “Decitabine + OSI-027”: Nc1ncn([C@H]2C[C@H](O)[C@@H](CO)O2)c(=O)n1 [Decitabine] + COc1cccc2cc(-c3nc([C@H]4CC[C@H](C(=O)O)CC4)n4ncnc(N)c34)[nH]c12 [OSI-027] (partner 0.5 µM)
A digest of the protocol:
as §1

Compound in the assay “Decitabine + Crizotinib”: Nc1ncn([C@H]2C[C@H](O)[C@@H](CO)O2)c(=O)n1 [Decitabine] + C[C@@H](Oc1cc(-c2cnn(C3CCNCC3)c2)cnc1N)c1c(Cl)ccc(F)c1Cl [Crizotinib] (partner 1 µM)
In a few lines: as §1

Compound in assay [1]: O=C(C[C@H]1NCCC[C@@H]1O)Cn1cnc2cc(Br)c(Cl)cc2c1=O (racemic) [Halofuginone] + N=C(N)NC(=N)NCCc1ccccc1 [Phenformin] (partner 250 µM)
A digest of the protocol: as §1

For H3255, the relative viability in the assay with Cediranib + Decitabine (first compound 0.04 µM) is 0.534; with Cediranib + Decitabine (first compound 0.4 µM) it was 0.601; with Cediranib + Decitabine (first compound 4 µM) it was 0.487; with Decitabine + OSI-027 (first compound 0.1265 µM), 0.478; with Decitabine + OSI-027 (first compound 0.4 µM), 0.435; with Decitabine + OSI-027 (first compound 1.265 µM), 0.5. Moreover, the relative viability in the assay with Decitabine + OSI-027 (first compound 4 µM) is 0.535; with Decitabine + Crizotinib (first compound 0.04 µM), 0.417; with Decitabine + Crizotinib (first compound 0.1265 µM) it was 0.82; with Decitabine + Crizotinib (first compound 0.4 µM) it was 0.419; in the assay with Decitabine + Crizotinib (first compound 1.265 µM), 0.537; with Decitabine + Crizotinib (first compound 4 µM), 0.484. Moreover, the relative viability in assay [1] (first compound 0.001 µM) was 0.399; in assay [1] (first compound 0.003162 µM) it was 0.372; in assay [1] (first compound 0.01 µM), 0.293; in assay [1] (first compound 0.03162 µM) it was 0.401; in assay [1] (first compound 0.1 µM), 0.369.

Regarding HCC-78, the relative viability in the assay with Cediranib + Decitabine (first compound 0.04 µM) was 0.74; with Cediranib + Decitabine (first compound 0.1265 µM), 0.64; in the assay with Cediranib + Decitabine (first compound 0.4 µM), 0.747; in the assay with Cediranib + Decitabine (first compound 1.265 µM) it was 0.605; with Cediranib + Decitabine (first compound 4 µM), 0.771; with Decitabine + OSI-027 (first compound 0.04 µM) it was 0.344. For the same cell line, the relative viability turned out to be 0.365 with Decitabine + OSI-027 (first compound 0.1265 µM); 0.345 with Decitabine + OSI-027 (first compound 0.4 µM); 0.353 with Decitabine + OSI-027 (first compound 1.265 µM); 0.344 with Decitabine + OSI-027 (first compound 4 µM); 0.354 with Decitabine + Crizotinib (first compound 0.04 µM); 0.382 with Decitabine + Crizotinib (first compound 0.1265 µM). Further, the relative viability with Decitabine + Crizotinib (first compound 0.4 µM) was found to be 0.395; with Decitabine + Crizotinib (first compound 1.265 µM), 0.272; in the assay with Decitabine + Crizotinib (first compound 4 µM) it was 0.255; in assay [1] (first compound 0.001 µM) it was 0.7; in assay [1] (first compound 0.003162 µM) it was 0.667; in assay [1] (first compound 0.01 µM), 0.697. The relative viability in assay [1] (first compound 0.03162 µM) was 0.739; in assay [1] (first compound 0.1 µM) it was 0.623.

In the case of EBC-1, the relative viability was 0.146 with Decitabine + Crizotinib (first compound 0.04 µM); 0.176 with Decitabine + Crizotinib (first compound 0.1265 µM); 0.193 in the assay with Decitabine + Crizotinib (first compound 0.4 µM); 0.144 with Decitabine + Crizotinib (first compound 1.265 µM); 0.148 with Decitabine + Crizotinib (first compound 4 µM).

Turning to NCI-H2405, the relative viability with Cediranib + Decitabine (first compound 0.04 µM) turned out to be 0.68; with Cediranib + Decitabine (first compound 0.1265 µM), 0.758; with Cediranib + Decitabine (first compound 0.4 µM) it was 0.71; with Cediranib + Decitabine (first compound 1.265 µM), 0.661; with Cediranib + Decitabine (first compound 4 µM), 0.793; with Decitabine + OSI-027 (first compound 0.04 µM), 0.555. In addition, the relative viability was found to be 0.564 in the assay with Decitabine + OSI-027 (first compound 0.1265 µM); 0.543 with Decitabine + OSI-027 (first compound 0.4 µM); 0.444 in the assay with Decitabine + OSI-027 (first compound 1.265 µM); 0.399 with Decitabine + OSI-027 (first compound 4 µM); 0.807 in the assay with Decitabine + Crizotinib (first compound 0.04 µM); 0.759 with Decitabine + Crizotinib (first compound 0.1265 µM). Further, the relative viability was 0.671 with Decitabine + Crizotinib (first compound 0.4 µM); 0.562 in the assay with Decitabine + Crizotinib (first compound 1.265 µM); 0.41 with Decitabine + Crizotinib (first compound 4 µM); 0.423 in assay [1] (first compound 0.001 µM); 0.436 in assay [1] (first compound 0.003162 µM); 0.414 in assay [1] (first compound 0.01 µM). For the same cell line, the relative viability in assay [1] (first compound 0.03162 µM) worked out at 0.396; in assay [1] (first compound 0.1 µM), 0.337.

As for A549, the relative viability with Cediranib + Decitabine (first compound 0.04 µM) was 0.449; in the assay with Cediranib + Decitabine (first compound 0.1265 µM) it was 0.115; with Cediranib + Decitabine (first compound 0.4 µM), 0.272; with Cediranib + Decitabine (first compound 1.265 µM) it was 0.258; in the assay with Cediranib + Decitabine (first compound 4 µM) it was 0.319; with Decitabine + Crizotinib (first compound 0.04 µM) it was 0.498. Also, the relative viability with Decitabine + Crizotinib (first compound 0.1265 µM) worked out at 0.658; in the assay with Decitabine + Crizotinib (first compound 0.4 µM), 0.348; with Decitabine + Crizotinib (first compound 1.265 µM) it was 0.13; in the assay with Decitabine + Crizotinib (first compound 4 µM), 0.102; in assay [1] (first compound 0.001 µM), 0.186; in assay [1] (first compound 0.003162 µM), 0.215. The relative viability was 0.148 in assay [1] (first compound 0.01 µM), 0.163 in assay [1] (first compound 0.03162 µM) and 0.109 in assay [1] (first compound 0.1 µM).
